The values below come from article PMC4434572, “Identification of novel drugs to target dormant micrometastases” (BMC Cancer, 2015).

Molecules are shown by their SMILES. Like-named read-outs stand apart in the source and are kept apart here.

The test system of data set [1] is 4T1 stem cells (CD44v3highALDH1high 4T1 cells). Nature of the data set: Tumor cell growth inhibition of sphere-derived cancer stem cells (CellTiter-Glo). In kind it is cell-based, mouse. As to conditions: for Fold change: stem cell EC50 vs parental EC50. As for the experimental part: Sphere formation to further increase the fraction of cancer stem cells was induced by suspending CD44v3highALDH1high 4T1 cells in 1:1 Matrigel/basal medium in a total of volume of 100 μl. Samples (5 × 10^4 cells) were then plated around the rims of wells in a 12-well plate and allowed to solidify at 37 °C for 10 min before 1 ml basal medium (with B27 plus 20 ng/mL EGF, 10 ng/mL FGF and 4 μg/mL insulin) was added. Medium was replenished every 3-days. Ten days after plating, spheres (tight, spherical, nonadherent masses >40 μm in diameter) per well were counted, and at least 100 spheres per group were measured. The number of spheres containing CD44v3highALDH1high 4T1 cells in each well and expressed as sphere forming units (SFU) as described previously. The number of SFUs per well was counted in triplicate wells for each condition.
To recover CD44v3highALDH1high 4T1 cells from the spheres, Matrigel–containing wells were treated with 1 mg/ml Dispase solution (Gibco). Spheres were then digested with trypsin and 0.05 % EDTA. CD44v3highALDH1high cells dissociated from spheres were counted by hemacytometer and replated to generate spheres of next generation. Serial passage of individual spheres was regularly performed in order to verify self-renewal capability of cells associated the spheres. Measurement of growth for CD44v3highALDH1high cells (dissociated from spheres) was also performed by incubating these cells in serum-free RPMI-1640 medium for 3-weeks using MTT-based growth assay as described previously.
To analyze tumor cell growth properties, sphere-derived CD44v3highALDH1high 4T1 cells were incubated in basal medium (with B27 plus 20 ng/mL EGF, 10 ng/mL FGF and 4 μg/mL insulin). Medium was replenished every 3-days. Twenty-one days after plating, the number of cell growth was then counted under a microscope at low magnification. In some cases, these sphere-derived CD44v3highALDH1high 4T1 cells were also treated with DT compounds for 5 days or doxorubicin (range 1 μM to 1 mM) for 5 days at 37 °C. The CellTiter-Glo® Luminescent Cell Viability Assay (Promega, Madison, WI) was utilized to determine the number of metabolically active cells based on the quantification of adenosine triphosphate (ATP). The percentage of […] relative to untreated controls was plotted as a linear function of drug concentration. The 50 % inhibitory concentration (IC50) was identified as the concentration of drug required to achieve a 50 % growth inhibition relative to untreated controls.
A stem cell–enriched cell population was prepared as described previously by sorting for ALDH1 and CD44v3. The identification of aldehyde dehydrogenase1 (ALDH1) activity from tumor–derived 4T1 Luc2-GFP cells (PerkinElmer, Waltham, MA) was conducted using the ALDEFLUOR kit (StemCell Technologies, Durham, NC). Specifically, tumor cells were suspended in ALDEFLUOR assay buffer containing ALDH1 substrate (BAAA, […] per 1 × 10^6 cells) and incubated for 30 min at 37 °C. As a negative control, 4T1 cells were treated with a specific ALDH1 inhibitor, […] diethylaminobenzaldehyde (DEAB). Next, for labeling cell surface marker, tumor–derived 4T1 cells were suspended in 100 μl ALDEFLUOR buffer followed by incubating with 20 μl allophycocyanin (APC)-labeled anti-CD44v3 antibody (recognizing the v3-specific domain of CD44) or APC-labeled normal mouse IgG (as a control) (BD Bioscience, San Jose, CA) for 15 min at 4 °C. For FACS sorting, tumor cells were incubated in PBS buffer followed by FACS (BD FACS Aria llu, BD Bioscience, San Jose, CA) sorting using dual-wavelength analysis as described previously. The parental cell line contained 2 % CD44v3highALDH1high cells but the final sorted cells contained 18 % CD44v3highALDH1high cells, a 9-fold enrichment.

For data set [2], the system named is cancer cells on SISgel or plastic. Put plainly: Activity of leads and analogs on cancer cells grown on plastic vs SISgel (cell line not stated). As to conditions: for Hit: YES/NO; for SR: ratio IC50-p/IC50-S. It counts as cell-based. In short, it runs like this:
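Cells on SISgel (30,000/well, 48 h attachment) or plastic (3,000/well, 24 h) were exposed to compound (diluted to 100 μM) for 48 h in high-glucose DMEM with 10 % FCS. Cell number quantified by CFDA-AM esterase assay; results given as plastic:SISgel cell-count ratio, hits confirmed in triplicate, curves fitted sigmoidally.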

The next data set relates to mice. Nature of the data set: Toxicity / maximum tolerated dose in mice. To be noted: for NOAEL dose, osmotic pump: Alzet #2004 osmotic pump, 4 weeks; for MTD / toxicity in mice: mice.
In another data set the test system is MDA-MB-231 (breast). Put plainly: Proliferation EC50 on SISgel vs monolayer. As to conditions: n = 6-8. In kind it is cell-based.
Where [3] appears, read: suspension culture, 5 days, read-out: EC50 4T1 stem cells in suspension culture.
Where [4] appears, read: cells on SISgel, read-out: IC50-S.
Setting [5] is: cells on plastic, read-out: IC50-p.

As for `O=S(=O)([O-])c1ccc2c(N=Nc3cccc4ccccc34)c(O)c(S(=O)(=O)[O-])cc2c1.[Na+].[Na+]` [DT310, 4-(1-naphthalenylhydrazinylidene) -3-oxonaphthalene-2,7-disulfonic acid], in data set [1], the Fold change was 9.8. Also, the EC50 in data set [1] (setting [3]) worked out at 141 µM. Moreover, in data set [2], the Hit result was “YES” and the SR was 2.4. Moreover, the IC50 in data set [2] (setting [4]) was found to be 36 µM. Besides, the IC50 in data set [2] (setting [5]) turned out to be 87 µM. Moreover, in the data set with mice, the “NOAEL dose, osmotic pump” value stood at 23.4 µg/h; the MTD was 65 mg/kg; the “toxicity in mice” value is recorded as “very low toxicity”.

With `O=S(=O)([O-])c1cc(O)c2c(O)c(N=Nc3cccc4ccccc34)c(S(=O)(=O)[O-])cc2c1.[Na+].[Na+]` [DT320, 4,5-Dihydroxy-3-(1-naphthalenylazo)-2,7-naphthalenedisulfonic acid disodium salt], the EC50 stood at 78.1 ± 7.1 µM with MDA-MB-231 (breast) (MDA-MB-231 monolayer, read-out: EC50 Monolayer); 8.7 ± 1.1 µM with MDA-MB-231 (breast) (MDA-MB-231 on SISgel, read-out: EC50 SISgel); 71 µM in data set [1] (grown on SISgel, read-out: EC50 4T1 stem cells grown on SISgel); 50 µM in data set [1] (setting [3]). Besides, the Fold change in data set [1] is recorded as 2.5. For the same molecule, in data set [2], the Hit result was “YES”. Moreover, the figures for the half-maximal inhibitory concentration (IC50) in data set [2] (setting [4]) and in data set [2] (setting [5]) were 9 µM and 78 µM, respectively. Also, in data set [2], the SR is given as 9.0. In the data set on mice, the “NOAEL dose, osmotic pump” value was 26.7 µg/h. This molecule showed an MTD with mice of 75 mg/kg. Also, in the data set with mice, the “toxicity in mice” value is “very low toxicity”.

On to `COc1cccc2c1C(=O)c1c(O)c3c(c(O)c1C2=O)C[C@@](O)(C(=O)CO)C[C@@H]3O[C@H]1C[C@H](N)[C@H](O)[C@H](C)O1` [Doxorubicin, reference compound], for which the EC50 in the data set on MDA-MB-231 (breast) (Homo sapiens, MDA-MB-231 monolayer, read-out: EC50 Monolayer) turned out to be 45.4 ± 1.9 µM; in the data set on MDA-MB-231 (breast) (Homo sapiens, MDA-MB-231 on SISgel, read-out: EC50 SISgel), 47.8 ± 4 µM; in data set [1] (Mus musculus, 4T1, 120 h, suspension culture, 5 days, read-out: EC50 4T1 stem cells in suspension culture), 630 µM. Moreover, in data set [1], the Fold change turned out to be 134.0.

A word on the EC50: it is the concentration at which the effect is half-maximal. A word on the IC50: it is the concentration that inhibits the measured activity by half. The term MTD denotes the largest dose that counted as tolerated.
